Values joined by “and” are separate entries in the source; they are usually repeats but may differ in a detail not shown here. Identical values can stand only once. Toxic doses and inconclusive results are not listed. Rule for the calls: active = survival T/C of 150% or more; inactive = T/C below 125% in these data.
System: P388 leukemia ip, CD2F1 mice, survival T/C
Assay: NCI In Vivo Anticancer Drug Screen. Data for tumor model P388 Leukemia (intraperitoneal) in CD2F1 (CDF1) mice
Settings: endpoint: median survival time, higher = longer survival
Procedure, shortened: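 Mice carrying the transplanted tumor received test compound or vehicle. Survival was recorded in each group, and the value is the treated-group measurement divided by that of the vehicle-treated control group.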

[1] = dose: 50.0 mg/kg/injection, schedule: Q01DX009 (ip), vehicle: saline with Tween-80
[2] = dose: 60.0 mg/kg/injection, schedule: Q01DX005 (ip), vehicle: saline
[3] = dose: 12.5 mg/kg/injection, schedule: Q01DX009 (ip), vehicle: Klucel (hydroxypropylcellulose) (HPC)
[4] = dose: 25.0 mg/kg/injection, schedule: Q01DX009 (ip), vehicle: Klucel (hydroxypropylcellulose) (HPC)
[5] = dose: 50.0 mg/kg/injection, schedule: Q01DX009 (ip), vehicle: Klucel (hydroxypropylcellulose) (HPC)

Measured: T/C

O=C(CCC1(CCC(=O)c2ccccc2)c2ccccc2C(=O)c2ccccc21)c1ccccc1
inactive: dose: 25.0 mg/kg/injection, schedule: Q04DX003 (ip), vehicle: Klucel (hydroxypropylcellulose) (HPC) 93 % of control | dose: 50.0 mg/kg/injection, schedule: Q04DX003 (ip), vehicle: Klucel (hydroxypropylcellulose) (HPC) 108 % of control | dose: 100.0 mg/kg/injection, schedule: Q04DX003 (ip), vehicle: Klucel (hydroxypropylcellulose) (HPC) 86 % of control | dose: 200.0 mg/kg/injection, schedule: Q04DX003 (ip), vehicle: Klucel (hydroxypropylcellulose) (HPC) 91 % of control

NC1=NN(O)C2=CC([N+](=O)[O-])C=CC2=N1 (centres undefined)
inactive: [1] 101 % of control | dose: 100.0 mg/kg/injection, schedule: Q01DX009 (ip), vehicle: saline with Tween-80 110 % of control | dose: 200.0 mg/kg/injection, schedule: Q01DX009 (ip), vehicle: saline with Tween-80 97 % of control

COc1ccc(NC(C)=NC(C)C)cc1
inactive: dose: 12.5 mg/kg/injection, schedule: Q01DX009 (ip), vehicle: saline with Tween-80 101 % of control and 88 % of control | dose: 25.0 mg/kg/injection, schedule: Q01DX009 (ip), vehicle: saline with Tween-80 92 % of control | dose: 50.0 mg/kg/injection, schedule: Q01DX009 (ip), vehicle: saline + Tween-80 + alcohol 98 % of control | [1] 100 % of control and 101 % of control

CC1(C)SC(C2NC(=O)C(c3ccccc3)NC2=O)NC1C(=O)O (centres undefined)
inactive: dose: 60.0 mg/kg/injection, schedule: Q01DX005 (ip), vehicle: Klucel (hydroxypropylcellulose) (HPC) 105 % of control | dose: 120.0 mg/kg/injection, schedule: Q01DX005 (ip), vehicle: Klucel (hydroxypropylcellulose) (HPC) 99 % of control | dose: 240.0 mg/kg/injection, schedule: Q01DX005 (ip), vehicle: Klucel (hydroxypropylcellulose) (HPC) 101 % of control

Oc1c(Cl)cc(Cl)cc1/C=N/NC(=S)Nc1cc(C(F)(F)F)cc(C(F)(F)F)c1
inactive: dose: 12.5 mg/kg/injection, schedule: Q01DX009 (ip), vehicle: olive oil, sesame oil, peanut oil 105 % of control | dose: 25.0 mg/kg/injection, schedule: Q01DX009 (ip), vehicle: olive oil, sesame oil, peanut oil 107 % of control | dose: 50.0 mg/kg/injection, schedule: Q01DX009 (ip), vehicle: olive oil, sesame oil, peanut oil 120 % of control | dose: 50.0 mg/kg/injection, schedule: Q01DX009 (oral), vehicle: saline with Tween-80 92 % of control | dose: 100.0 mg/kg/injection, schedule: Q01DX009 (ip), vehicle: olive oil, sesame oil, peanut oil 86 % of control | dose: 100.0 mg/kg/injection, schedule: Q01DX009 (oral), vehicle: saline with Tween-80 108 % of control | dose: 200.0 mg/kg/injection, schedule: Q01DX009 (oral), vehicle: saline with Tween-80 99 % of control | dose: 400.0 mg/kg/injection, schedule: Q01DX009 (oral), vehicle: saline with Tween-80 90 % of control

Nc1nnc2nc(CC(=O)c3ccc([N+](=O)[O-])cc3)c(CC(=O)c3ccc([N+](=O)[O-])cc3)nn12
inactive: [2] 98 % of control | dose: 120.0 mg/kg/injection, schedule: Q01DX005 (ip), vehicle: saline 100 % of control | dose: 240.0 mg/kg/injection, schedule: Q01DX005 (ip), vehicle: saline 100 % of control

CC(Cc1ccccc1)N(C)C(=O)c1ccc[n+](C)c1 (centres undefined)
inactive: dose: 50.0 mg/kg/injection, schedule: Q01DX005 (ip), vehicle: saline 107 % of control | dose: 100.0 mg/kg/injection, schedule: Q01DX005 (ip), vehicle: saline 109 % of control

CC(C)(CNCc1ccccc1)COS(=O)(=O)O
inactive: dose: 100.0 mg/kg/injection, schedule: Q01DX001 (ip), vehicle: saline 110 % of control | dose: 200.0 mg/kg/injection, schedule: Q01DX001 (ip), vehicle: saline 105 % of control | dose: 400.0 mg/kg/injection, schedule: Q01DX001 (ip), vehicle: saline 100 % of control

C1CCC2(CC1)N=C1CCCCC1S2 (centres undefined)
inactive: dose: 6.25 mg/kg/injection, schedule: Q01DX005 (ip), vehicle: saline + Tween-80 + alcohol 106 % of control | dose: 12.5 mg/kg/injection, schedule: Q01DX005 (ip), vehicle: saline + Tween-80 + alcohol 98 % of control | dose: 25.0 mg/kg/injection, schedule: Q01DX005 (ip), vehicle: saline + Tween-80 + alcohol 104 % of control

COc1ccc2c(C#N)cc3c(c[n+](C)c4ccccc34)c2c1
inactive: dose: 12.5 mg/kg/injection, schedule: Q04DX003 (ip), vehicle: distilled water + Tween-80 105 % of control | dose: 25.0 mg/kg/injection, schedule: Q04DX003 (ip), vehicle: distilled water + Tween-80 115 % of control

C[n+]1ccccc1NC(=O)c1ccccc1
inactive: dose: 61.5 mg/kg/injection, schedule: Q01DX001 (ip), vehicle: saline 100 % of control | dose: 123.0 mg/kg/injection, schedule: Q01DX001 (ip), vehicle: saline 104 % of control | dose: 246.0 mg/kg/injection, schedule: Q01DX001 (ip), vehicle: saline 104 % of control

O=c1[nH]c2c(cnn2-c2ccc(Cl)cc2)c(=O)n1-c1cccc(Cl)c1
inactive: [3] 88 % of control | [4] 94 % of control | [5] 100 % of control

C[S+](C)CCCNC(=O)c1csc(CCNC(=O)c2ccccc2)n1
inactive: dose: 12.5 mg/kg/injection, schedule: Q04DX003 (ip), vehicle: saline + alcohol 95 % of control | dose: 25.0 mg/kg/injection, schedule: Q04DX003 (ip), vehicle: saline + alcohol 100 % of control | dose: 50.0 mg/kg/injection, schedule: Q04DX003 (ip), vehicle: saline + alcohol 100 % of control

O=S(=O)(c1ccc(Cl)cc1)N(Cl)Cl
inactive: dose: 6.25 mg/kg/injection, schedule: Q01DX009 (ip), vehicle: Klucel (hydroxypropylcellulose) (HPC) 107 % of control | [3] 100 % of control | [4] 101 % of control and 116 % of control | [5] 105 % of control

CCN(CC)CCNC1=C(Cl)C(=O)c2ccccc2C1=O
inactive: dose: 1.56 mg/kg/injection, schedule: Q01DX009 (ip), vehicle: saline 95 % of control | dose: 3.13 mg/kg/injection, schedule: Q01DX009 (ip), vehicle: saline 96 % of control | dose: 6.25 mg/kg/injection, schedule: Q01DX009 (ip), vehicle: saline 96 % of control | dose: 12.5 mg/kg/injection, schedule: Q01DX009 (ip), vehicle: distilled water + Tween-80 100 % of control | dose: 12.5 mg/kg/injection, schedule: Q01DX009 (ip), vehicle: saline 101 % of control

CCCCCCCCCCCC(=O)NCC(=O)NC1C(CO)OC(Nc2ncnc3nc[nH]c23)C(O)C1O (centres undefined)
inactive: dose: 0.06 mg/kg/injection, schedule: Q01DX009 (ip), vehicle: water 93 % of control | dose: 0.12 mg/kg/injection, schedule: Q01DX009 (ip), vehicle: water 101 % of control | dose: 0.13 mg/kg/injection, schedule: Q01DX009 (ip), vehicle: other 103 % of control | dose: 0.25 mg/kg/injection, schedule: Q01DX009 (ip), vehicle: other 113 % of control | dose: 0.25 mg/kg/injection, schedule: Q01DX009 (ip), vehicle: water 99 % of control | dose: 0.5 mg/kg/injection, schedule: Q01DX009 (ip), vehicle: other 121 % of control | dose: 0.5 mg/kg/injection, schedule: Q01DX009 (ip), vehicle: water 99 % of control | dose: 1.0 mg/kg/injection, schedule: Q01DX009 (ip), vehicle: water 105 % of control | dose: 2.0 mg/kg/injection, schedule: Q01DX009 (ip), vehicle: other 100 % of control and 86 % of control | dose: 2.0 mg/kg/injection, schedule: Q01DX009 (ip), vehicle: water 124 % of control

COC(=O)CC(c1ccccc1)C1(c2ccc3c(c2)OCO3)SCCCS1 (centres undefined)
inactive: dose: 100.0 mg/kg/injection, schedule: Q01DX001 (ip), vehicle: saline with Tween-80 92 % of control | dose: 200.0 mg/kg/injection, schedule: Q01DX001 (ip), vehicle: saline with Tween-80 90 % of control

CN(C(N)=O)C1CCCC1
inactive: dose: 100.0 mg/kg/injection, schedule: Q04DX003 (ip), vehicle: saline with Tween-80 100 % of control | dose: 200.0 mg/kg/injection, schedule: Q04DX003 (ip), vehicle: saline with Tween-80 109 % of control | dose: 400.0 mg/kg/injection, schedule: Q04DX003 (ip), vehicle: saline with Tween-80 113 % of control

CN(C)c1ccc2nc3c(cc(Nc4cccc5cccc(Nc6cc7ccccc7c7nc8ccc(N(C)C)cc8[o+]c67)c45)c4ccccc43)[o+]c2c1
inactive: dose: 60.0 mg/kg/injection, schedule: Q01DX005 (ip), vehicle: saline with Tween-80 90 % of control | dose: 120.0 mg/kg/injection, schedule: Q01DX005 (ip), vehicle: saline with Tween-80 100 % of control | dose: 240.0 mg/kg/injection, schedule: Q01DX005 (ip), vehicle: saline with Tween-80 91 % of control

NC(CCl)=NCCOC12CC3CC(CC(C3)C1)C2
inactive: dose: 15.0 mg/kg/injection, schedule: Q01DX005 (ip), vehicle: saline 103 % of control | dose: 30.0 mg/kg/injection, schedule: Q01DX005 (ip), vehicle: saline 103 % of control | [2] 106 % of control and 98 % of control

Reference: PubChem BioAssay AID330 (DTP/NCI, 2004)
